# Laboratory results as given in publication PMC9105583, “Stereoselective Synthesis and Anticancer Activity of 2,6-Disubstituted trans-3-Methylidenetetrahydropyran-4-ones” (Materials, 2022).
# Experiments:
# γH2AX in HL-60 cells = test: γH2AX (H2AX pS139) DNA damage detection, flow cytometry; assay type: cell-based, human; details: compound at 2IC50, 24 h; control 1.1 ± 0.17%
# Method: (§1) Analysis of apoptosis, DNA damage and cell cycle
# (§2) Apoptosis, DNA damage, proliferation and cell cycle kinetics were investigated using the Apoptosis, DNA Damage and Cell Proliferation Kit (BD Biosciences, San Jose, CA, USA) according to the manufacturer’s protocol. Briefly, HL-60 cells (2.0 × 10^5 cells/mL) were seeded in 6-well plates and left to grow for 24 h. Then, the cells were treated with 13d or 13g at IC50 and 2IC50 concentrations. After 24 h incubation, the cells were treated with BrdU solution for 8 h. Then, the cells were collected by centrifugation, fixed and permeabilized. To expose the incorporated BrdU, the cells were incubated with DNase (300 µg/mL in PBS) for 1 h at 37 °C. Afterwards, the cells were stained with fluorescent antibodies, including Anti-BrdU, Anti-Cleaved PARP (Asp214) and Anti-H2AX (pS139) for 20 min at room temperature. Total DNA for cell cycle analysis was stained using DAPI solution (1 µg/mL in staining buffer). Finally, the cells were analyzed by flow cytometry using CytoFLEX (Beckman Coulter, Inc., Brea, CA, USA) and the data analysis was performed with Kaluza Analysis Software v2 (Beckam Coulter, Inc., Brea, CA. USA).
# DNA damage can be the result of either single- or double-strand breaks (DSBs). DSB are considered the most dangerous, as it is assumed that in metazoan, just one DSB has the potential to trigger cell death. […]
# HL-60 cells = test: Cell cycle distribution, DAPI DNA staining and flow cytometry; assay type: cell-based, human; details: 24 h
# Method: as §1, §2
# The cell cycle has a critical role in regulation of cell growth, proliferation and division of cells after DNA damage. Therefore, it often serves as a target in cancer therapy development. The cell cycle distribution was investigated using DAPI DNA staining and flow cytometry analysis.
# human topoisomerase IIα = target: T1, human topoisomerase IIα (Homo sapiens, UniProt P11388); test: Human Topoisomerase II Decatenation Assay (kDNA); assay type: biochemical; details: for inhibition of topoisomerase II activity: 0.5 mM and 1 mM concentrations, 30 min at 37 °C
# T1 construct: purchased Inspiralis, Norwich, UK
# T1 sequence (P11388 whole entry): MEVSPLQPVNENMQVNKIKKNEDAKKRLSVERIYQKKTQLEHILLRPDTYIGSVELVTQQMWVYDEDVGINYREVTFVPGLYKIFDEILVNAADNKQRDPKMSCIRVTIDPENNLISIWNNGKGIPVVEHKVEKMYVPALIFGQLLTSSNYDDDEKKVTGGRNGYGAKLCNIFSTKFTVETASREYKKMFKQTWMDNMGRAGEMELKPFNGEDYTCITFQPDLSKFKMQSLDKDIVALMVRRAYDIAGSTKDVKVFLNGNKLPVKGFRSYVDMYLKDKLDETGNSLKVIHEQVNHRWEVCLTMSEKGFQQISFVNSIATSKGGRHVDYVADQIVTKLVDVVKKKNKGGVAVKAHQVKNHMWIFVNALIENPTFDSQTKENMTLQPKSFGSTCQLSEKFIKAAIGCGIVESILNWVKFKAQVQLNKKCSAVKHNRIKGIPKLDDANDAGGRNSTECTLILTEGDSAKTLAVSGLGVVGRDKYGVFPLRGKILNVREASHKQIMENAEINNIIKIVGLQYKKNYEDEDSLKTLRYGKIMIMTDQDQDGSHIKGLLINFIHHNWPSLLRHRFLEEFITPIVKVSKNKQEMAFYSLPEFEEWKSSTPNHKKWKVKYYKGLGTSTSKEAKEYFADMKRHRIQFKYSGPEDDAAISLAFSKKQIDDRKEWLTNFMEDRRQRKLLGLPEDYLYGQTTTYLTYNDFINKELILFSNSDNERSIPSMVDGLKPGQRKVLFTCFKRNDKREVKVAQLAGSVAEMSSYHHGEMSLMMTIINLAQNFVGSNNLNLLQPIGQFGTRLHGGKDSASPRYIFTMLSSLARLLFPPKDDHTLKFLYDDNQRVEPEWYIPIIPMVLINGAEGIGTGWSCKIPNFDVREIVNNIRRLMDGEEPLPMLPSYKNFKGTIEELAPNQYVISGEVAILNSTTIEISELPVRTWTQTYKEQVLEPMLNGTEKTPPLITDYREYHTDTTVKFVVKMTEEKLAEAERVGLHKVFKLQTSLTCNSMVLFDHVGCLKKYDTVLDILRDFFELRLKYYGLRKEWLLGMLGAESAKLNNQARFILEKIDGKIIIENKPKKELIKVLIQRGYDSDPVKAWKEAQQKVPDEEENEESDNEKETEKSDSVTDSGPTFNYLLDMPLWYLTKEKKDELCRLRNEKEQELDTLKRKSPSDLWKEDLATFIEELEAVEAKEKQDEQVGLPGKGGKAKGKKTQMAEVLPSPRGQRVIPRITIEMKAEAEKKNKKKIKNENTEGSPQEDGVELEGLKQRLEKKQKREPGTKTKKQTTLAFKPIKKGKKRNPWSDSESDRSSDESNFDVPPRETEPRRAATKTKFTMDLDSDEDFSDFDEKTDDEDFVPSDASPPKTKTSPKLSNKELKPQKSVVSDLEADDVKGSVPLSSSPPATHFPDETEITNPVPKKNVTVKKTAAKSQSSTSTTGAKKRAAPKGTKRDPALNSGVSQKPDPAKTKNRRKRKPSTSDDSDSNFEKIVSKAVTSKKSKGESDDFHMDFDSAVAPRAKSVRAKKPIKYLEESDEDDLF
# Method: Topoisomerase IIα activity
# Topoisomerase IIα activity inhibition was assessed using the Human Topoisomerase II Decatenation Assay (Inspiralis, Norwich, UK). Briefly, kDNA was incubated with ATP, assay buffer (50 mM Tris-HCl pH 7.5, 125 mM NaCl, 10 mM MgCl2, 5 mM DTT, 100 µg/mL albumin), human topoisomerase II enzyme and various concentrations of the investigated compounds for 30 min at 37 °C. The reaction was stopped by addition of STEB (40% (w/v) sucrose, 100 mM Tris-HCl pH 8, 1 mM EDTA, 0.5 mg/mL bromophenol blue) followed by DNA extraction with chloroform/iso-amyl alcohol mixture (24:1). The samples were loaded onto a 1% agarose gel and run in a TBE buffer at 85 V for 65 min. Gels were stained with ethidium bromide (1 µg/mL) for 15 min, destained in water and visualized with a transilluminator (ChemiDoc MP Imaging System, Bio-Rad, Hercules, CA, USA).
# The ability of the analogs to inhibit topoisomerase II activity was investigated by measuring decatenation of kinetoplast DNA (kDNA) by human topoisomerase IIα. Topoisomerase II has the ability to decatenate interlinked dsDNA minicircles.
smiles,measurement,setting,value
"C=C1C(=O)C[C@H](C(C)C)O[C@H]1C(C)C (relative stereo) [Analog 13d, Trans-2,6-diisopropyl-3-methylidenetetrahydro-4H-pyran-4-one]",cells with γH2AX generation (H2AX phosphorylation),γH2AX in HL-60 cells,38.4 ± 5.89%
same,population of cells in G0/G1 phase,HL-60 cells; compound at 2IC50 concentration,diminished
same,cells in the G2/M phase,"HL-60 cells; compound at 2IC50 concentration, control 14.9 ± 1.37%",24.1 ± 1.40%
same,inhibition of topoisomerase II activity,human topoisomerase IIα,inhibited topoisomerase II activity
"C=C1C(=O)C[C@H](c2ccccc2)O[C@H]1C(C)C (relative stereo) [Analog 13g, Trans-2-isopropyl-3-methylidene-6-phenyltetrahydro-4H-pyran-4-one]",cells with γH2AX generation (H2AX phosphorylation),γH2AX in HL-60 cells,9.6 ± 2.94%
same,change of G2/M cell population,HL-60 cells; not statistically significant,slight increase
same,inhibition of topoisomerase II activity,human topoisomerase IIα,inhibited topoisomerase II activity
same,inhibitory activity towards topoisomerase IIα compared with 13d,human topoisomerase IIα; 0.5 and 1 mM,stronger inhibitory activity
